Test results taken from PMC3931943, “Extraction of tamoxifen and its metabolites from formalin-fixed, paraffin-embedded tissues: an innovative quantitation method using liquid chromatography and tandem mass spectrometry” (Cancer Chemotherapy and Pharmacology, 2014).

Assays:
[1] = LC-MS/MS quantitation of TAM and its metabolites in archival FFPE breast tumor tissue of TAM-treated patients; format: in vivo, human; settings: for Mean concentration in FFPE tissue, tumor recurrent patients: breast tumor recurrence patients (n = 16), mean 26 months on TAM; for Mean concentration in FFPE tissue, tumor recurrent patients / Mean concentration in FFPE tissue, tumor non-recurrent patients: 20 mg/day TAM for at least 6 months, mean ± SEM, Z-isomers quantitated; for Mean concentration in FFPE tissue, tumor non-recurrent patients: patients without tumor recurrence (n = 8), mean 22 months on TAM
Method: This study was approved by the Conjoint Health Research Ethics Board. FFPE tissue blocks were acquired from the archives of the pathology department at Foothills Medical Centre (Calgary, AB, Canada). Patients who had estrogen-receptor positive breast cancers diagnosed from 1990 to 2010 and treated with standard doses of TAM (20 mg/day of TAM for at least 6 months until time of biopsy with a treatment plan of 5 years on TAM) were selected for investigation. Patients were divided into two groups categorized as breast tumor recurrence (n = 16) and non-recurrence (n = 8).
Six 15 μm paraffin sections were removed from each FFPE tissue block and placed in a 1.5 mL eppendorf tube. The tissue sections were then deparaffinized by incubating with 1 mL of xylene for 10 min at room temperature. About 20 μL of I.S. was added followed by centrifugation at 20,000g for 5 min. Since xylene washes most of the TAM and metabolites from the paraffin sections, the supernatant was collected and transferred to a clean eppendorf tube. This procedure was repeated, and the two supernatants were combined followed by an SPE clean-up. Sample purification was performed via an SPE column vacuum manifold (Supelco, PA, USA). Samples were loaded onto the SPE columns previously conditioned with 3 mL of methanol and acetonitrile followed by a wash with 2 mL of 10 % methanol. The SPE cartridges were dried thereafter for 2 min, and the analytes were eluted with 2 mL of 5 % 50 mM ammonium acetate in methanol. Eluates were evaporated to dryness under a stream of nitrogen at 55 °C using a heating module obtained from Thermo Scientific/Pierce (Asheville, NC, USA). The dry extracts were then resuspended in 100 μL of acetonitrile/0.2 % formic acid (50:50).
Liquid chromatography was performed on a 1200 SL series LC system consisting of a binary pump, well-plate autosampler and thermostated column compartment (Agilent Technologies). Separation of TAM and metabolites was carried out using a Zorbax SB-C18 column (150 × 2.1 mm i.d., 3.5 μm particle size, Agilent Technologies) with a column temperature of 40 °C. Mobile phase consisted of 0.2 % formic acid and acetonitrile (60:40) at a flow rate of 0.2 mL/min with a gradient of 40–90 % of acetonitrile over 5 min. About 30 μL of the sample extract was injected onto the LC system. The total run time was 12 min including column equilibration.
MS detection of the analytes was accomplished by a 6410 triple-quadrupole mass spectrometer equipped with an electrospray ion source operating in the positive ion mode (Agilent Technologies). High purity nitrogen was used as the drying gas at a flow rate of 11 L/min with a gas temperature of 350 °C, and the nebulizer pressure was set at 35 psi. The capillary voltage was set at 4,000 V for each compound; however, the fragmentor voltages and the collision energies were operated at different settings for optimization of each analyte (Table 1). Quantitation was performed in multiple-reaction monitoring (MRM) mode, and the transitions of the precursors to product ions are summarized in Table 1. Data acquisition and analysis were performed using Mass Hunter Software v.B.02.01 (Agilent Technologies).

[2] = set-up: method as in PMID 17529893; settings: frozen tissues (~2 mg), breast cancer patients, single dose of 20 mg TAM, samples 5 h postdrug administration; cited from earlier work

CC/C(=C(\c1ccccc1)c1ccc(OCCN(C)C)cc1)c1ccccc1 [TAM, Tamoxifen]
Mean concentration in FFPE tissue, tumor recurrent patients [1]: 122 ± 25.2 ng/g | Mean concentration in FFPE tissue, tumor non-recurrent patients [1]: 147 ± 51.7 ng/g | Average concentration in frozen tissue [2]: 118 ng/g

CC/C(=C(\c1ccccc1)c1ccc(OCCNC)cc1)c1ccccc1 [DMT, N-desmethyl-tamoxifen]
Mean concentration in FFPE tissue, tumor recurrent patients [1]: 324 ± 103 ng/g | Mean concentration in FFPE tissue, tumor non-recurrent patients [1]: 1,256 ± 282.8 ng/g | Average concentration in frozen tissue [2]: 23.3 ng/g | Range of concentration in frozen tissue [2]: 0 to 643 ng/g

CC/C(=C(\c1ccc(O)cc1)c1ccc(OCCNC)cc1)c1ccccc1 [Endoxifen, N-desmethyl-4-hydroxy-tamoxifen]
Mean concentration in FFPE tissue, tumor recurrent patients [1]: 19.2 ± 5.08 ng/g | Mean concentration in FFPE tissue, tumor non-recurrent patients [1]: 94.6 ± 41.0 ng/g | Detection in FFPE tissue of tumor recurrent patients ([1]; some of the tumor recurrent patients (data not shown), possibly below the detection limit of the assay): not found
